The values that follow come from paper PMC3954831, “Protection of Cardiomyocytes from the Hypoxia-Mediated Injury by a Peptide Targeting the Activator of G-Protein Signaling 8” (PLoS ONE, 2014).

The subject of data set [1] is connexin 43 (CX43) of cultured cardiomyocytes. Conditions: gallein 100 µM; ref [13]; cited from earlier work. An excerpt:
Gallein is an inhibitor of Gβγ-mediated signaling that occupies a “common” interaction surface of Gβγ and inhibits the interaction of Gβγ-regulated proteins with Gβγ [25]. Thus, gallein is expected to block a wide range of Gβγ signals in cells, including CX43 regulation mediated by AGS-Gβγ. We previously demonst ...

Data set [2] has as its system cardiomyocytes. The data set is described as follows: MTT assay, viability of cardiomyocytes. It is filed as cell-based, Wistar rat. Here is the method:
Cardiomyocytes in 24-well culture plates were incubated in PBS (pH 7.4) containing 0.5 mg/ml MTT at 37°C. After for 2 h incubation, the PBS was removed and 100 µl of dimethyl sulfoxide (DMSO) was added to each well to solubilize dark blue formazan products. Absorbance of the colored solution was determined at 595 nm.
Here, we first examined the influence of the AGS8-peptide and gallein on the viability of cells. Cardiomyocytes were incubated with gallein for 24 h, and their viability was determined by MTT assay.
Figure 7 Effect of AGS8-peptide or Gallein on the viability of cardiomyocytes determined by MTT assay. Neonatal cardiomyocytes were cultured for 24-peptide or Gallein. […] N = 5 from 5 independent experiments.
A general note: Tetrazolium assays rely on reduction of a dye to a coloured formazan, in cell work by metabolically active cells.

Turning to `O=C1OC2(c3ccccc31)c1ccc(O)c(O)c1Oc1c2ccc(O)c1O` [gallein], in data set [1], the “inhibition of hypoxia-induced internalization of CX43” value is given as “completely inhibits hypoxia-induced internalization of CX43”. For the same compound, the “cytotoxicity / viability of cardiomyocytes” value in data set [2] (MTT assay, 1 µM, 24 h, N = 5 independent experiments) is given as “caused damage in the cardiomyocytes”. Moreover, in data set [2] (normoxia), the cytotoxicity under normoxia entry is reported as “produced deleterious effects”.
